Consider four compounds from publication PMC8728392, “Synthesis, Anticancer Assessment, and Molecular Docking of Novel Chalcone-Thienopyrimidine Derivatives in HepG2 and MCF-7 Cell Lines” (Oxidative Medicine and Cellular Longevity, 2021).

The subject of data set [1] is HepG2 cell line. In words: Cell cycle analysis (PI, flow cytometry). The format is cell-based, human. Here is the method: Cell cycle analysis was performed to decide if the newly synthesized thienopyrimidine derivatives arrested the cell cycle and at what phase of the cell cycle, the HepG2 and MCF-7 cell lines were arrested. The experiments were performed as previously described by Tolba et al.. HepG2 and MCF-7 cell lines were seeded and incubated with the tested compounds in 6-well plates. After incubation overnight, the cells were washed twice with ice-cold phosphate-buffered saline (PBS), detached by EDTA-trypsinization from the plates, harvested by centrifugation, fixed in ice-cold 70% (v/v) ethanol, and washed with phosphate-buffered saline (PBS, pH 7.2 ± 0.2). The cells were resuspended with 0.1 mg/ml RNase, stained with […] propidium iodide (PI), and analyzed by flow cytometry using a FACSCalibur flow cytometer (BD Biosciences, San Jose, CA). CellQuest software (Becton Dickinson) was used to determine the cell cycle distributions after incubation with 5-FU or tested compounds. Exposure of HepG2 and MCF-7 cell lines to these compounds could interfere with the normal cell cycle distribution.
(In general: Flow cytometry measures light scatter and fluorescence of single cells or particles in a stream.)

Data set [2] relates to Bax, Bcl-2, caspase-3, and caspase-9 in HepG2. In words: RT-PCR relative expression of apoptosis markers. The format is cell-based, human. The conditions noted are these: IC50, 8-hour incubation, vs control. The text has this:
We determined the effect of IC50 concentration of newly synthesized thienopyrimidine derivatives (3a-e and 3g and 3b and 3g) on the relative expression levels of some markers of apoptosis in HepG2 and MCF-7 cell lines, respectively. These included the antiapoptotic marker Bcl-2 as well as the apoptotic markers Bax, caspase-3, and caspase-9 [33]. BIORAD iScript™ One-Step RT-PCR kit with SYBR® Green was used to assess the relative levels of expression of apoptosis markers. The measurement was carried out according to the technique of reverse transcription polymerase chain reaction (RT-PCR) using the Rotor-Gene RT-PCR system, and the method of the used kit was done based on the manufacturer's instructions. The procedure of this assay included the following:
Based on the manufacturer's instructions, the Qiagen RNeasy Extraction Kit (Qiagen Ltd., UK) was used to isolate mRNA from approximately 1 × 10^7 cells according to the cell line.
Mix all the following reagents to get the total volume (50 μl): 2X SYBR® Green RTPCR reaction mixture (25 μl), forward primer […] (1.5 μl), reverse primer […] (1.5 μl), nuclease-free water (11 μl), RNA template (1 pg-100 ng total RNA) (10 μl), and iScript reverse transcriptase (1 μl) for One-Step RT-PCR.
The thermal cycler (Rotor-Gene) program used was as follows: one cycle for reverse transcription at 50°C for 10 minutes and one cycle for RT inactivation/Hot-start activation at 95°C for 5 minutes and then 45 cycles for qPCR (10 s at 95°C, 30 seconds for annealing at 55°C, and 30 seconds for extension at 72°C), and this is followed by the final extension (one cycle) at 72°C for 10 minutes.

The test system of data set [3] is human breast cancer cell line (MCF-7). Kind of data set: MTT assay, cytotoxicity. Type of data set: cell-based. The conditions noted are these: MCF-7, 24 hours. How it is done: (§1) Cancer cell lines were manipulated according to the method described by Sigounas et al.. In this method, the cell lines were grown as adherent monolayers in T75 flasks with Dulbecco's modified Eagle's medium (DMEM) supplemented with 10% Fetal Bovine Serum (FBS), 2 mM L-glutamine, and 1% streptomycin/penicillin. The cells were left to grow in a CO2 incubator at 37°C, 5% CO2, and 95% humidity until their confluence.
(§2) The 3-[4,5-dimethylthiazol-2-yl]-2,5-diphenyltetrazolium bromide (MTT) colorimetric assay was used to examine the sensitivity of cells to tested compounds (as anticancer drugs), as previously described. This assay depends on the production of a purple formazan derivative from the yellow tetrazolium bromide (MTT) by mitochondrial succinate dehydrogenase in viable cells. The percentage of cell survival was calculated as follows: (1) Percentage of survival=O.D.treated cells/O.D.control cells×100.
(§3) For preliminary screening of the cytotoxicity of synthesized compounds 3a-g, cells exposed to DMSO were used as a control. Plotting the relationship between the survival score and the compound concentration and calculating the IC50 (the concentration required to inhibit cell viability by 50%) were performed for each test compound according to Li et al. in comparison with the reference standard anticancer agent, 5-FU.
(§4) The 3-[4,5-dimethylthiazol-2-yl]-2,5-diphenyltetrazolium bromide (MTT) colorimetric assay was used to examine the sensitivity of cells to tested compounds (as anticancer drugs), as previously described by Hussein et al. (2017). This assay depend on the production of a purple formazan derivative from the yellow tetrazolium bromide (MTT) by mitochondrial succinate dehydrogenase in viable cells. Briefly, after harvesting the cells with 0.25% trypsin, the cell lines were suspended in DMEM. Cells were seeded in 96-well microtiter plates at a concentration of 5×10^4 cell/well in a fresh medium and left to attach to the plates for 24 h before treatment with the tested compounds 3a-g. Test compounds were dissolved in dimethyl sulfoxide (DMSO). After 24 hours, cells were incubated with the appropriate concentration ranges of compounds, the wells were diluted to […] with fresh medium and incubation was continued for 24 hours. Three wells were used for each concentration. After 24 hours of treatment, 20 μl of MTT solution (5mg/ml) was added and subsequently the plates were further incubated for 4 hours to allow the viable cells to biotransform the yellow-colored MTT into purple formazan crystals. The optical density (O.D.) of each well was measured spectrophotometrically at […] with an enzyme-linked immunosorbent assay (ELISA) microplate reader (BioTek, EL-800, USA). The percentage of cell survival was calculated as follows: […]
(In general: Tetrazolium assays rely on reduction of a dye to a coloured formazan, in cell work by metabolically active cells.)

The subject of data set [4] is human liver cancer cell line (HepG2). Kind of data set: MTT assay, cytotoxicity. To be noted: HepG2, 24 hours. Type of data set: cell-based. Here is the method: as §1, §2, §3, §4
Data set [5] deals with MCF-7 cell line. In words: Annexin V-FITC/PI apoptotic assay. The format is cell-based, human. An excerpt:
(§5) Annexin V-fluorescein isothiocyanate (FITC) and counterstaining with propidium iodide (PI) using the Annexin V-FITC/PI apoptosis detection kit (BD Biosciences, San Diego, CA) were employed to distinguish early and late apoptotic cells according to the manufacturer's directions. Annexin V conjugated with fluorescein isothiocyanate was used to quantify the loss of phosphatidylserine asymmetry in cell membranes involved in apoptosis, and propidium iodide can distinguish between early apoptosis, late apoptotic, and necrotic cells. Analyses were achieved by using a FACSCalibur flow cytometer (BD Biosciences, San Jose, CA).
(§6) Cells were gently washed twice with PBS accompanied by tryptic digestion (0.25% trypsin/EDTA) and washed yet again with PBS. All the cells including the floating and adherent ones were harvested, pooled and stained with […] in 1× binding buffer for 15 min at room temperature in the dark. Analyses were achieved by FACS Calibur flow cytometer (BD Biosciences, San Jose, CA).

Data set [6] relates to HepG2 cells. In words: Annexin V-FITC/PI apoptotic assay. Type of data set: cell-based, human.
From the text: as §5, §6

In data set [7] the test system is A549 human lung adenocarcinoma cells. Also on record: method as in PMID 29660690. To be noted: cited from earlier work.

A word on the melting point: it is the temperature, or range, at which the solid turns liquid. `CCOC(=O)Cn1c(SCC(=O)Nc2ccc(C(=O)/C=C\c3ccccc3Cl)cc2)nc2sc3c(c2c1=O)CCN(C(=O)OCC)C3` [Compound 3a, Ethyl (Z)-2-((2-((4-(3-(2-Chlorophenyl)acryloyl)phenyl)amino)-2-oxoethyl)thio)-3-(2-ethoxy-2-oxoethyl)-4-oxo-3,5,6,8-tetrahydropyrido[4′,3′:4,5]thieno[2,3-d]pyrimidine-7(4H)-carboxylate]: the melting point fell in the range of 181 to 182 °C. For the same compound, in data set [1], the “cell population in G2/M compared with control cells” value is “substantial increase” and the “cell population in pre-G1 phases compared with control cells” value was “significant increase”. Further, the “expression levels of Bcl-2” value in data set [2] is given as “noticeably decreased”. Besides, in data set [3] (4.8828125 μg/ml), the “survival percentage (mean ± SEM)” value is 150.0 ± 0.171%. In data set [3] (9.765625 μg/ml), the “survival percentage (mean ± SEM)” value is 132.9 ± 0.132%. The “survival percentage (mean ± SEM)” value in data set [3] (19.53125 μg/ml) turned out to be 124.4 ± 0.079%. The “survival percentage (mean ± SEM)” value in data set [3] (39.0625 μg/ml) was 129.1 ± 0.038%. In data set [3] (78.125 μg/ml), the “survival percentage (mean ± SEM)” value was found to be 108.4 ± 0.084%. Also, in data set [3] (156.25 μg/ml), the “survival percentage (mean ± SEM)” value is reported as 101.8 ± 0.284%. The “survival percentage (mean ± SEM)” value in data set [3] (312.5 μg/ml) turned out to be 101.6 ± 0.022%. Further, in data set [3] (625 μg/ml), the “survival percentage (mean ± SEM)” value came to 64.9 ± 0.008%. In data set [3] (1250 μg/ml), the “survival percentage (mean ± SEM)” value was found to be 9.8 ± 0.003%. The “survival percentage (mean ± SEM)” value in data set [3] (2500 μg/ml) is reported as 6.28 ± 0.003%. Further, in data set [3] (5000 μg/ml), the “survival percentage (mean ± SEM)” value turned out to be 6.0 ± 0.001%. In addition, the “survival percentage (mean ± SEM)” value in data set [3] (10000 μg/ml) is 6.0 ± 0.063%. Further, the “survival percentage (mean ± SEM)” value in data set [4] (4.8828125 μg/ml) is listed as 103.5 ± 0.033%. Besides, in data set [4] (9.765625 μg/ml), the “survival percentage (mean ± SEM)” value was found to be 87.8 ± 0.087%. In addition, the “survival percentage (mean ± SEM)” value in data set [4] (19.53125 μg/ml) came out at 74.2 ± 0.012%. In addition, the “survival percentage (mean ± SEM)” value in data set [4] (39.0625 μg/ml) amounted to 73.8 ± 0.019%. In addition, the “survival percentage (mean ± SEM)” value in data set [4] (78.125 μg/ml) worked out at 66.9 ± 0.018%. Further, in data set [4] (156.25 μg/ml), the “survival percentage (mean ± SEM)” value is 40.1 ± 0.021%. Moreover, in data set [4] (312.5 μg/ml), the “survival percentage (mean ± SEM)” value is 28.4 ± 0.009%. The “survival percentage (mean ± SEM)” value in data set [4] (625 μg/ml) is given as 21.7 ± 0.012%. For the same compound, the “survival percentage (mean ± SEM)” value in data set [4] (1250 μg/ml) is listed as 20.5 ± 0.004%. Also, the “survival percentage (mean ± SEM)” value in data set [4] (2500 μg/ml) is 19.5 ± 0.001%. In addition, the “survival percentage (mean ± SEM)” value in data set [4] (5000 μg/ml) is recorded as 19.1 ± 0.001%. Further, the “survival percentage (mean ± SEM)” value in data set [4] (10000 μg/ml) is reported as 18.5 ± 0.001%. Also, the “total, early, and late apoptosis as well as necrosis relative to the control cells” value in data set [5] is on record as “significant increase”. For the same compound, the “early and late apoptosis” value in data set [6] is “significantly exhibited early and late apoptosis”.
One may read the IC50 as the concentration that gives 50% inhibition. Regarding `N.N.[Cl][Pt][Cl]` [cisplatin], the IC50 in data set [7] is 15.3 µM.
For the compound `C=CCn1c(SCC(=O)Nc2ccc(C(=O)/C=C/c3cc(OC)c(OC)c(OC)c3)cc2)nnc1-c1ccc(OC)cc1` [compound I], the half-inhibitory concentration (IC50) in data set [7] was 4.4 µM.
Regarding “Ethyl (Z)-2-(Ethoxymethyl)-4-oxo-3-(2-oxo-2-((4-(3-(2,3,4-trimethoxyphenyl)acryloyl)-phenyl)amino)ethyl)-3,5,6,8-tetrahydropyrido[4′,3′:4,5]thieno[2,3-d]pyrimidine-7(4H)-carboxylate [Compound 3d]”, in data set [1], the “S phase cell population” value is given as “significant (P < 0.05) increase”. For the same compound, the “cell population in pre-G1 phases compared with control cells” value in data set [1] is “significant increase”. Besides, the “expression levels of Bcl-2” value in data set [2] was “noticeably decreased”. Besides, the “survival percentage (mean ± SEM)” value in data set [3] (4.8828125 μg/ml) is given as 133.8 ± 0.227%; in data set [3] (9.765625 μg/ml), 146.0 ± 0.065%; in data set [3] (19.53125 μg/ml), 133.2 ± 0.116%; in data set [3] (39.0625 μg/ml), 132.7 ± 0.231%; in data set [3] (78.125 μg/ml), 113.1 ± 0.171%; in data set [3] (156.25 μg/ml), 103.1 ± 0.202%. In addition, the “survival percentage (mean ± SEM)” value in data set [3] (312.5 μg/ml) was 35.3 ± 0.044%; in data set [3] (625 μg/ml) it was 26.5 ± 0.120%; in data set [3] (1250 μg/ml), 8.5 ± 0.006%; in data set [3] (2500 μg/ml), 6.2 ± 0.005%; in data set [3] (5000 μg/ml), 6.12 ± 0.003%; in data set [3] (10000 μg/ml), 5.8 ± 0.001%. Besides, the “survival percentage (mean ± SEM)” value in data set [4] (4.8828125 μg/ml) amounted to 123.0 ± 0.026%; in data set [4] (9.765625 μg/ml), 111.0 ± 0.041%; in data set [4] (19.53125 μg/ml), 99.2 ± 0.026%; in data set [4] (39.0625 μg/ml), 91.2 ± 0.138%; in data set [4] (78.125 μg/ml), 31.0 ± 0.017%; in data set [4] (156.25 μg/ml) it was 20.5 ± 0.002%. Further, the “survival percentage (mean ± SEM)” value in data set [4] (312.5 μg/ml) stood at 20.5 ± 0.002%; in data set [4] (625 μg/ml), 20.0 ± 0.001%; in data set [4] (1250 μg/ml), 19.5 ± 0.001%; in data set [4] (2500 μg/ml) it was 19.4 ± 0.004%; in data set [4] (5000 μg/ml), 18.5 ± 0.003%; in data set [4] (10000 μg/ml), 18.4 ± 0.002%.
